Laboratory results from article PMC11012124, “Synthesis of Novel Triazine-Based Chalcones and 8,9-dihydro-7H-pyrimido[4,5-b][1,4]diazepines as Potential Leads in the Search of Anticancer, Antibacterial and Antifungal Agents” (International Journal of Molecular Sciences, 2024).

Assays:
[1] = test system: NCI-H226; test: cells; details: Homo sapiens, NCI-H226, 48 h; for CC50: read-out: LC50
[2] = test system: CCRF-CEM; test: cells; details: Homo sapiens, 48 h; for CC50: read-out: LC50
[3] = test system: ACHN; test: cells; details: Homo sapiens, 48 h; for CC50: read-out: LC50
[4] = test system: PC-3; test: cells; details: Homo sapiens, PC-3, 48 h; for CC50: read-out: LC50
[5] = test system: EKVX; test: cells; details: Homo sapiens, 48 h; for CC50: read-out: LC50
[6] = Hemolytic activity, spectrophotometric; assay type: cell-based, human; details: human, human red blood cells (huRBC), 5% hematocrit, 200 μg/mL, 37 °C
[7] = test system: MALME-3M; test: cells; details: Homo sapiens, 48 h; for CC50: read-out: LC50
[8] = test system: OVCAR-5; test: cells; details: Homo sapiens, OVCAR-5, 48 h; for CC50: read-out: LC50
[9] = test system: HCC-2998; test: cells; details: Homo sapiens, HCC 2998, 48 h; for CC50: read-out: LC50
[10] = test system: A498; test: cells; details: Homo sapiens, A498, 48 h; for CC50: read-out: LC50
[11] = test system: UACC-257; test: cells; details: Homo sapiens, UACC-257, 48 h; for CC50: read-out: LC50
[12] = test system: HCT-116; test: cells; details: Homo sapiens, HCT-116, 48 h; for CC50: read-out: LC50
[13] = test system: BT-549; test: cells; details: Homo sapiens, BT-549, 48 h; for CC50: read-out: LC50
[14] = test system: SK-MEL-28; test: cells; details: Homo sapiens, SK-MEL-28, 48 h; for CC50: read-out: LC50
[15] = test system: MDA-MB-435; test: cells; details: Homo sapiens, MDA-MB-435, 48 h; for CC50: read-out: LC50
[16] = test system: NCI-H23; test: cells; details: Homo sapiens, NCI-H23, 48 h; for CC50: read-out: LC50
[17] = test system: SN12C; test: cells; details: Homo sapiens, 48 h
[18] = test system: MDA-MB-231/ATCC; test: cells; details: Homo sapiens, MDA-MB-231, 48 h
[19] = test system: TK-10; test: cells; details: Homo sapiens, TK-10, 48 h; for CC50: read-out: LC50
[20] = test system: RXF 393; test: cells; details: Homo sapiens, RXF 393, 48 h; for CC50: read-out: LC50
[21] = test system: SK-OV-3; test: cells; details: Homo sapiens, SK-OV-3, 48 h; for CC50: read-out: LC50
[22] = test system: HL-60(TB); test: cells; details: Homo sapiens, HL-60, 48 h; for CC50: read-out: LC50
[23] = test system: NCI-H460; test: cells; details: Homo sapiens, NCI-H460, 48 h; for CC50: read-out: LC50
[24] = test system: K-562; test: cells; details: Homo sapiens, K562, 48 h; for GI50: K-562, 48 h; for CC50: read-out: LC50
[25] = test system: HOP-92; test: cells; details: Homo sapiens, HOP-92, 48 h; for CC50: read-out: LC50
[26] = test system: SW-620; test: cells; details: Homo sapiens, SW-620, 48 h; for CC50: read-out: LC50
[27] = test system: IGROV1; test: cells; details: Homo sapiens, IGROV-1, 48 h; for CC50: read-out: LC50
[28] = test system: MCF7; test: cells; details: Homo sapiens, MCF7, 48 h; for CC50: read-out: LC50
[29] = test system: LOX IMVI; test: cells; details: Homo sapiens, 48 h; for CC50: read-out: LC50, LOX IMVI, 48 h
[30] = test system: SNB-75; test: cells; details: Homo sapiens, SNB-75, 48 h; for CC50: read-out: LC50
[31] = test system: 60 cancer cell lines; test: NCI-60 one-dose screen (10 μM); assay type: cell-based; details: Homo sapiens; one dose of 10 μM, mean over 60 cancer cell lines; read-out: Mean Growth Percent (MGP)
Text: Additionally, the mean of the growth percentages (MGP) of each compound against all the 60 cancer cell lines is also reported, which is used as one of the selection criteria to continue with tests at five concentration doses.

[32] = test system: HS 578T; test: cells; details: Homo sapiens, 48 h; for CC50: read-out: LC50
[33] = test system: SF-539; test: cells; details: Homo sapiens, SF-539, 48 h; for CC50: read-out: LC50, SF-539, 48 h
[34] = test system: A549/ATCC; test: cells; details: Homo sapiens, A549, 48 h; for CC50: read-out: LC50
[35] = test system: RPMI-8226; test: cells; details: Homo sapiens, RPMI-8226, 48 h; for CC50: read-out: LC50
[36] = test system: MOLT-4; test: cells; details: Homo sapiens, MOLT-4, 48 h; for CC50: read-out: LC50
[37] = test system: OVCAR-8; test: cells; details: Homo sapiens, OVCAR-8, 48 h; for CC50: read-out: LC50
[38] = test system: M14; test: cells; details: Homo sapiens, M14, 48 h; for CC50: read-out: LC50

COc1ccc(/C=C/C(=O)c2ccc(S(=O)(=O)NCCNc3nc(Nc4ccc(F)cc4)nc(N(C)C)n3)cc2)cc1 [24c]
GI50 [1]: 3.8 µM
CC50 [1]: > 100 µM
GI50 [2]: 4.09 µM
CC50 [2]: > 100 µM
GI50 [3]: 3.4 µM
CC50 [3]: > 100 µM
GI50 [4]: 3.5 µM
CC50 [4]: > 100 µM
GI50 [5]: 4.12 µM
CC50 [5]: > 100 µM
hemolysis at 24 h, 200 µg/mL [6]: 0.1%
GI50 [7]: 10.6 µM
CC50 [7]: > 100 µM
GI50 [8]: 8.43 µM
CC50 [8]: > 100 µM
GI50 [9]: 5.47 µM
CC50 [9]: 43.2 µM
GI50 [10]: 10 µM
CC50 [10]: 87.8 µM
GI50 [11]: 13.3 µM
CC50 [11]: > 100 µM
GI50 [12]: 1.86 µM
CC50 [12]: 7.07 µM
GI50 [13]: 13.2 µM
CC50 [13]: 56.7 µM
GI50 [14]: 5.23 µM
CC50 [14]: 47.3 µM
GI50 [15]: 5.47 µM
CC50 [15]: 79.6 µM
GI50 [16]: 10.4 µM
CC50 [16]: > 100 µM
GI50 [17]: 3.6 µM
CC50 ([17]; read-out: LC50): 44.5 µM
GI50 [18]: 2.73 µM
CC50 ([18]; read-out: LC50): 63 µM
GI50 [19]: 8.09 µM
CC50 [19]: > 100 µM
GI50 [20]: 2.59 µM
CC50 [20]: 41.7 µM
GI50 [21]: 13.9 µM
CC50 [21]: > 100 µM
GI50 [22]: 3.6 µM
CC50 [22]: > 100 µM
GI50 [23]: 4.11 µM
CC50 [23]: > 100 µM
GI50 [24]: 3.99 µM
CC50 [24]: > 100 µM
GI50 [25]: 3.25 µM
CC50 [25]: > 100 µM
GI50 [26]: 5.42 µM
CC50 [26]: 52.3 µM
GI50 [27]: 10.8 µM
CC50 [27]: > 100 µM
GI50 [28]: 1.93 µM
CC50 [28]: 46.1 µM
GI50 [29]: 3.23 µM
CC50 [29]: 34 µM
GI50 [30]: 3.57 µM
CC50 [30]: > 100 µM
activity at 10 µM [31]: 24.7%
GI50 [32]: 4.68 µM
CC50 [32]: > 100 µM
GI50 [33]: 10.3 µM
CC50 [33]: 51.2 µM
GI50 [34]: 6.54 µM
CC50 [34]: > 100 µM
GI50 [35]: 2.96 µM
CC50 [35]: > 100 µM
GI50 [36]: 3.12 µM
CC50 [36]: > 100 µM
GI50 [37]: 9.51 µM
CC50 [37]: > 100 µM
GI50 [38]: 4.27 µM
CC50 [38]: 99.6 µM

CN(C)c1nc(NCCNS(=O)(=O)c2ccc(C3=Nc4c(N)nc(N)nc4NC(c4ccc(F)cc4)C3)cc2)nc(Nc2ccc(F)cc2)n1 (centres unmarked) [31f]
GI50 [1]: > 100 µM
CC50 [1]: > 100 µM
GI50 [2]: 3.99 µM
CC50 [2]: > 100 µM
GI50 [3]: > 100 µM
CC50 [3]: > 100 µM
GI50 [4]: 5.04 µM
CC50 [4]: > 100 µM
GI50 [5]: 5.17 µM
CC50 [5]: > 100 µM
hemolysis at 24 h, 200 µg/mL [6]: 2.4%
GI50 [7]: 6.28 µM
CC50 [7]: > 100 µM
GI50 [8]: > 100 µM
CC50 [8]: > 100 µM
GI50 [9]: 4.22 µM
CC50 [9]: > 100 µM
GI50 [10]: 22.1 µM
CC50 [10]: > 100 µM
GI50 [11]: 11.4 µM
CC50 [11]: > 100 µM
GI50 [12]: 4.54 µM
CC50 [12]: > 100 µM
GI50 [13]: 3.26 µM
CC50 [13]: 18.2 µM
GI50 [14]: 15.7 µM
CC50 [14]: > 100 µM
GI50 [15]: 5.93 µM
CC50 [15]: > 100 µM
GI50 [16]: 54.1 µM
CC50 [16]: > 100 µM
GI50 [19]: > 100 µM
CC50 [19]: > 100 µM
GI50 [20]: 2.48 µM
GI50 [21]: > 100 µM
CC50 [21]: > 100 µM
GI50 [22]: 3.12 µM
CC50 [22]: > 100 µM
GI50 [23]: 4.74 µM
CC50 [23]: > 100 µM
GI50 [24]: 2.8 µM
CC50 [24]: > 100 µM
GI50 [25]: 3.09 µM
CC50 [25]: 23.3 µM
GI50 [26]: 8.27 µM
CC50 [26]: > 100 µM
GI50 [27]: 5.01 µM
CC50 [27]: > 100 µM
GI50 [28]: 3.16 µM
CC50 [28]: 43.7 µM
GI50 [29]: 2.62 µM
CC50 [29]: 9.13 µM
GI50 [30]: 2.53 µM
CC50 [30]: 74 µM
activity at 10 µM [31]: 37.1%
GI50 [32]: 5.7 µM
CC50 [32]: > 100 µM
GI50 [33]: 3.89 µM
CC50 [33]: > 100 µM
GI50 [34]: > 100 µM
CC50 [34]: > 100 µM
GI50 [35]: 5.25 µM
CC50 [35]: > 100 µM
GI50 [36]: 2.45 µM
GI50 [37]: 12 µM
CC50 [37]: > 100 µM
GI50 [38]: 3.84 µM
CC50 [38]: 25.3 µM

CN(C)c1nc(NCCNS(=O)(=O)c2ccc(C3=Nc4c(N)nc(N)nc4NC(c4ccc(C(F)(F)F)cc4)C3)cc2)nc(Nc2ccc(F)cc2)n1 (centres unmarked) [31g]
GI50 [1]: 37.3 µM
CC50 [1]: 86 µM
GI50 [2]: 3.24 µM
CC50 [2]: 86 µM
GI50 [3]: > 86 µM
CC50 [3]: > 86 µM
GI50 [4]: 4.37 µM
CC50 [4]: 86 µM
GI50 [5]: 5.52 µM
CC50 [5]: 86 µM
hemolysis at 24 h, 200 µg/mL [6]: 3%
GI50 [7]: 11.3 µM
CC50 [7]: 24.2 µM
GI50 [8]: 19.9 µM
CC50 [8]: 86 µM
GI50 [9]: 4.73 µM
CC50 [9]: 25.9 µM
GI50 [10]: 22.2 µM
CC50 [10]: 77.4 µM
GI50 [11]: 23.3 µM
CC50 [11]: 86 µM
GI50 [12]: 5.1 µM
CC50 [12]: 86 µM
GI50 [13]: 11.8 µM
CC50 [13]: 32.6 µM
GI50 [14]: 15 µM
CC50 [14]: 86 µM
GI50 [15]: 9.13 µM
CC50 [15]: 86 µM
GI50 [16]: 27.7 µM
CC50 [16]: 86 µM
GI50 [19]: > 86 µM
CC50 [19]: > 86 µM
GI50 [20]: 2.57 µM
CC50 [20]: 18.8 µM
GI50 [21]: > 86 µM
CC50 [21]: > 86 µM
GI50 [22]: 4.07 µM
CC50 [22]: 86 µM
GI50 [23]: 5.49 µM
CC50 [23]: 86 µM
GI50 [24]: 3.51 µM
CC50 [24]: 86 µM
GI50 [25]: 2.99 µM
CC50 [25]: 16.9 µM
GI50 [26]: 14.3 µM
CC50 [26]: 86 µM
GI50 [27]: 11.2 µM
CC50 [27]: 86 µM
GI50 [28]: 2.87 µM
CC50 [28]: 21 µM
GI50 [29]: 3.14 µM
CC50 [29]: 12 µM
GI50 [30]: 2.13 µM
CC50 [30]: 86 µM
activity at 10 µM [31]: 6.81%
GI50 [32]: 9.03 µM
CC50 [32]: 86 µM
GI50 [33]: 6.22 µM
CC50 [33]: 24.7 µM
GI50 [34]: 55 µM
CC50 [34]: 86 µM
GI50 [35]: 4 µM
CC50 [35]: 86 µM
GI50 [36]: 2.74 µM
CC50 [36]: 86 µM
GI50 [37]: 26.1 µM
CC50 [37]: 86 µM
GI50 [38]: 7.87 µM
CC50 [38]: 86 µM
